In patent US20070270591A1, “Iron (II) amino acid chelates with reducing agents attached thereto” (priority 2006, published 2007):

Conditions: no method given; for absorption compared with ferrous sulfate: comparison with ferrous sulfate

SMILES | absorption relative to ferric trisglycinate (absorbed x times better) (comparison with ferric trisglycinate) | absorption compared with ferrous sulfate
NCC(=O)[O-].NCC(=O)[O-].[Fe+2] [Ferrous bisglycinate] | 2.3 times | better than ferrous sulfate
NCC(=O)O.NCC(=O)O.NCC(=O)O.[Fe] [ferric trisglycinate] | – | better than ferrous sulfate
